According to US20110160053A1, “Synergistic Combination of Prothioconazole and Metominostrobin” (Bayer CropScience AG, priority 2009, published 2011):

Experiments:
Format in all cases: in vivo
Phakopsora pachyrhizi = assay: Phakopsora test (soybeans) / protective; settings: evaluated 11 days after inoculation
Protocol: To produce a suitable preparation of active compound, 1 part by weight of active compound or active compound combination is mixed with the stated amounts of solvent and emulsifier, and the concentrate is diluted with water to the desired concentration.
To test for protective activity, young plants are sprayed with the preparation of active compound or active compound combination at the stated rate of application. After the spray coating has dried on, the plants are placed in a greenhouse at a temperature of approximately 23° C. and a relative atmospheric humidity of approximately 70%.
1 day after spraying, the plants are inoculated with an aqueous spore suspension of the causal agent of soybean rust (Phakopsora pachyrhizi). The plants are then placed in a greenhouse at approximately 20° C. and a relative atmospheric humidity of approximately 80%. The test is evaluated 11 days after the inoculation. 0% means an efficacy which corresponds to that of the control, while an efficacy of 100% means that no disease is observed.

Sphaerotheca fuliginea = assay: Sphaerotheca test (cucumbers) / protective; settings: rate of application 2 ppm, evaluated 7 days after inoculation
Protocol: [table] To produce a suitable preparation of active compound, 1 part by weight of active compound is mixed with the stated amounts of solvent and emulsifier, and the concentrate is diluted with water to the desired concentration. To test for protect activity, young plants are sprayed with the preparation of active compound at the stated rate of application. After the spray coating has dried on, the plants are inoculated with an aqueous spore suspension of Sphaerotheca fuliginea. The plants are then placed in a greenhouse at approximately 23° C. and a relative atmospheric humidity of approximately 70%. The test is evaluated 7 days after the inoculation. 0% means an efficacy which corresponds to that of the control, while an efficacy of 100% means that no disease is observed.

[1] = tested on: Blumeria graminis fsp. tritici; assay: Blumeria test (wheat) / preventive; settings: rate of application 62.5 ppm, evaluated 7 days after inoculation
Protocol: [table] To produce a suitable preparation of active compound, 1 part by weight of active compound or active compound combination is mixed with the stated amounts of solvent and emulsifier, and the concentrate is diluted with water to the desired concentration. To test for preventive activity, young plants are sprayed with the preparation of active compound or active compound combination at the stated rate of application. After the spray coating has been dried, the plants are dusted with spores of Blumeria graminis fsp. tritici. The plants are placed in the greenhouse at a temperature of approximately 18° C. and a relative atmospheric humidity of approximately 80% to promote the development of mildew pustules. The test is evaluated 7 days after the inoculation. 0% means an efficacy which corresponds to that of the control, while an efficacy of 100% means that no disease is observed.

| SMILES | Efficacy in % (Phakopsora pachyrhizi; rate of application 2.5 ppm) [%] | Efficacy in % (Phakopsora pachyrhizi; rate of application 5 ppm) [%] | Efficacy in % (Sphaerotheca fuliginea) [%] | Efficacy in % [1] [%] | Efficacy in % (Phakopsora pachyrhizi; rate of application 0.1 ppm) [%] | Efficacy in % (Phakopsora pachyrhizi; rate of application 0.5 ppm) [%] |
| --- | --- | --- | --- | --- | --- | --- |
| CNC(=O)/C(=N/OC)c1ccccc1Oc1ccccc1 [Metominostrobin, (E)-α-(methoxyimino)-N-methyl-2-phenoxy-benzeneacetamide] | 0 | 20 | 0 | 50 | – | – |
| OC(Cc1ccccc1Cl)(Cn1nc[nH]c1=S)C1(Cl)CC1 (centres unmarked) [Prothioconazole, 2-[2-(1-chlorocyclopropyl)-3-(2-chlorophenyl)-2-hydroxypropyl]-2,4-dihydro-[1,2,4]-triazole-3-thione] | – | – | 65 | 13 | 20 | 50 |
